Test results taken from patent US10869903B2, “Probiotic and prebiotic compositions, and methods of use thereof for treatment and prevention of graft versus host disease” (Evelo Biosciences, Inc., priority 2014, dated 2020).

Experiments:
blautia = assay: Sugar fermentation in media lacking glucose (pH and optical density); format: cell-based
Lactobacillus johnsonii = format: cell-based
[1] = tested on: Tregs in the large intestine; settings: mouse, in vivo; cited from earlier work
[2] = tested on: human peripheral blood mononuclear cells (PBMCs); assay: Cytokine release by human PBMCs incubated with commensal bacteria, alone or combined with E. faecalis (Luminex); format: cell-based; settings: for anti-inflammatory profile for a Th-1-driven condition such as GVHD: overall assessment
Experimental: An in vitro system was developed to efficiently test the inflammatory and immunomodulatory properties of different human commensal bacteria on human peripheral blood mononuclear cells (PBMCs). Experiments were carried out with 21 bacterial candidates to profile their anti-inflammatory properties against human PBMCs. The innate properties of bacteria alone on human PBMCs were tested as well as their ability to counteract the pro-inflammatory activity of Enterococcus feacalis.
Human PBMCs were isolated from fresh blood by density-gradient centrifugation using Ficoll (1-4). […] The results are presented in FIGS. 2-5 for all time points. […] The 24 h results are shown as a composite in FIG. 6 and with statistical analysis on individual cytokines in FIGS. 7-10. The results represent the properties of each bacterial species against human PBMCs and their ability to counteract inflammatory stimulation with E. faecalis in vitro.

[3] = tested on: microbiome of the gut and the vagina; design: species or system C57Bl/6 female mice; settings: mouse, in vivo
Source text: The trillions of organisms forming the microbiome function as an organ system interconnected throughout the body. The possibility that modification of the microbiome in a given physical location may influence the microbiome at other sites in the body (distal augmentation) was investigated. Seven week old C57Bl/6 female mice were acclimatized for 7 days prior to the start of the study by daily handling and shuffling between cages. All mice were housed at three mice per cage in individually vented cages (Thoren, Hazleton, Pa.). At day 0, baseline fresh fecal pellets, and vaginal lavages with 100 μL of sterile double-distilled water were collected and immediately frozen at −80° C. for microbiome analysis. […] Water alone is not expected to influence the microbiome and acted as a negative control. […] The impact of oral vancomycin is therefore expected to be limited to the gastrointestinal tract such that microbiome changes elsewhere in the body (e.g. vagina) would be attributable to distal augmentation. […]
Isolation and sequencing of microbial DNA from the stool and vaginal samples was performed by DNA Genotek (Ottawa, ON, Canada). The V3-V4 region of the 16S ribosomal subunit was amplified with custom PCR primers and sequenced on an Illumina MiSeq to a minimum acceptable read depth of 25,000 sequences per sample. […]

tumors = settings: oral administration; anti-PD-1 and anti-CTLA-4 antibody therapies; cited from earlier work
[4] = tested on: anaerobic commensal bacteria; assay: Carbon source usage profiling on Biolog PM01 and PM02A plates (OD 750 nm); format: cell-based
[5] = human, in vivo
Experimental: D-xylose is a carbon source generally preferred by anaerobic bacteria. […] A parallel, double-blind, 5 cohort escalation food safety study was conducted to examine D-xylose in normal human volunteers. The study was a double-blind, single-center, parallel group study designed to evaluate the tolerability and potential microbiome changes induced by ingestion of D-xylose at 5 different amounts in healthy, adult volunteers enrolled at 1 study center in the United States (US).
Subjects were screened for eligibility within 21 days prior to the first planned ingestion of study sweetener on Day 1 (Baseline). […]
Subjects returned to the study center weekly on Days 8, 15, 22, and 28 for ingestion, tolerability, and compliance evaluations. Safety was evaluated on a continual basis through adverse events (AE) monitoring, clinical laboratory measurements, vital sign monitoring, physical examinations, electrocardiograms (ECGs), telephone follow-up, and electronic subject ingestion diaries. Stool was collected pre-ingestion and at pre-specified time points, and post-ingestion samples were evaluated for changes in the gut microbiome compared with Baseline for all subjects. […]
Safety was evaluated on a continual basis through AE monitoring, clinical laboratory measurements, vital sign monitoring, physical examinations, ECGs, telephone follow-up, and electronic subject ingestion diaries. […]

[6] = Normal human volunteer study of D-xylose: CRP, serum cytokines, T-cell markers; format: in vivo, healthy, adult volunteers
Source text: Blood was collected at pre-specified pre- and post-ingestion time points to evaluate C-reactive protein (CRP), serum cytokines (tumor necrosis factor alpha [TNF-α], interleukin [IL]-2, IL-6, interferon gamma [IFN-γ], and IL-10), and T-cell markers CD3, CD4, CD8, CD25, and FOXP3. Plasma was also stored and may be tested for biomarkers and/or metabolic markers for up to 7 years.
Summary statistics (n, mean, standard deviation, median, minimum, and maximum) were presented for serum concentrations of CRP, flow cytometry T-cell markers (CD3, CD4, CD8, CD25, and FOXP3), and cytokines (TNF-α, IL-2, IL-6, IFN-γ, and IL-10) as per their nominal time points.

[7] = Normal human volunteer study of D-xylose: serum and urine pharmacokinetics; format: in vivo, healthy, adult volunteers
Source text: Blood and urine were collected at pre-specified pre- and post-ingestion time points to measure D-xylose levels and to characterize the systemic absorption profiles of D-xylose. Phoenix® WinNonLin®, Version 6.2.1, was used for PK analyses. Serum D-xylose concentrations were summarized by cohort using nominal sample times according to actual amount received using summary statistics (n, coefficient of variation [CV], mean, standard deviation [SD], median, minimum, and maximum). Evidence for the occurrence of steady-state was assessed graphically by comparing the time course of either trough or 2-hour post-ingestion serum concentrations of D-xylose as different levels of D-xylose. Accumulation was assessed by comparing the 2-hour post-first-ingestion serum levels with those observed at Week 2 (Day 15) and Week 4 (Day 28). […] Urine PK parameters for D-xylose levels included Ae(0-t) (cumulative amount of sweetener recovered in urine) and percent sweetener amount excreted over a 5-hour period.

GVHD = tested on: GVHD; design: species or system mice; settings: mouse, in vivo

C[C@H](O)[C@H](O)[C@@H](O)[C@@H](O)C=O [rhamnose]
augmentation (fermentation) of blautia (blautia): specifically augments blautia | augmentation (fermentation) of lactobacillus (Lactobacillus johnsonii): not lactobacillus

CCN1CCN(c2cc3c(cc2F)c(=O)c(C(=O)O)cn3C2CC2)CC1 [enro, enrofloxacin, reference compound]
serum endotoxin levels after antibiotic (serum endotoxin; 0.25 g/L in drinking water day −7 to day −2, measured 2 days after a 5 day course (day 0)): led to an increase in serum endotoxin levels

CCC(=O)O [propionate]
numbers of Tregs in the large intestine [1]: restored normal numbers of Tregs

B. luti [EPV3]
intrinsic inflammatory activity (induction of pro-inflammatory cytokines) compared to EPV 8 ([2]; bacterium alone, 24 h): relatively low intrinsic inflammatory activity | reduction of induction of pro-inflammatory cytokines by EPV 8, including IL-6, MCP-1, IL-12p70, IFNγ ([2]; combination with EPV 8, 24 h): able to reduce | anti-inflammatory profile for a Th-1-driven condition such as GVHD [2]: significantly desirable anti-inflammatory profile

CC(=O)O [acetate]
numbers of Tregs in the large intestine [1]: restored normal numbers of Tregs

B. wexlerae [EPV5]
anti-inflammatory profile for a Th-1-driven condition such as GVHD [2]: suboptimal anti-inflammatory profile

CN[C@H](CC(C)C)C(=O)N[C@H]1C(=O)N[C@@H](CC(N)=O)C(=O)N[C@H]2C(=O)N[C@H]3C(=O)N[C@H](C(=O)N[C@H](C(=O)O)c4cc(O)cc(O)c4-c4cc3ccc4O)[C@H](O)c3ccc(c(Cl)c3)Oc3cc2cc(c3O[C@@H]2O[C@H](CO)[C@@H](O)[C@H](O)[C@H]2O[C@H]2C[C@](C)(N)[C@H](O)[C@H](C)O2)Oc2ccc(cc2Cl)[C@H]1O [vancomycin]
impact on the microbiome of the gut (PCA at family level, fecal samples) [3]: strong impact on the microbiome of the gut | day 0 to day 6 pattern in vaginal samples (PCA) ([3]; po): showed an overall difference

Bacteroides
responsiveness to checkpoint inhibitor therapy in cancer (tumors): increases the responsiveness

Lactobacillus
responsiveness to checkpoint inhibitor therapy in cancer (tumors): not

Bifidobacterium
responsiveness to checkpoint inhibitor therapy in cancer (tumors): increases the responsiveness

O=C[C@H](O)[C@@H](O)[C@H](O)CO [D-xylose]
use as a carbon source by bacterial strains [4]: used as a carbon source by several bacterial strains | SAEs, severe AEs, subject deaths [5]: No SAEs, severe AEs, or subject deaths | tolerability [5]: well tolerated | levels of serum interferon gamma over time ([6]; 2 g and 15 g D-xylose cohorts): trend for reduced levels | subjects with normal serum CRP at Baseline and at least 1 post-ingestion CRP value >2.9 mg/L ([6]; all cohorts of the sweetener): 8.3% | ingested amount recovered in urine within 5 hours post-ingestion ([7]; 1 g TID cohort, Days 1, 15 and 28): approximately 40% | serum D-xylose concentrations versus ingestion amount ([7]; 1 to 15 g TID): increased linearly with increasing ingestion amounts | accumulation ratio of serum D-xylose ([7]; Day 15, 15 mg TID cohort, variability high): approximately 1.9 fold | accumulation ratio of serum D-xylose ([7]; Day 28, 15 g TID): 1.68 | augmentation (fermentation) of blautia (blautia): specifically augments blautia | augmentation (fermentation) of lactobacillus (Lactobacillus johnsonii): not lactobacillus | Blautia level in the intestinal flora (GVHD): expansion of Blautia in the intestinal flora | GVHD related survival (GVHD): improved survival | basal levels of serum endotoxin (serum endotoxin; mouse, in vivo): reduced these basal levels over time | effect on increase in serum endotoxin level caused by cipro (serum endotoxin; mouse, in vivo): appeared to counteract the increase | effect on increase in serum endotoxin level caused by enro (serum endotoxin; mouse, in vivo): but not enro
